In paper PMC11304236, “A Novel Drug Candidate for Sepsis Targeting Heparanase by Inhibiting Cytokine Storm” (Advanced Science, 2024):

Assays:
[1] = system: TNF-α, IL-6, IL-1β; experiment: Cytokine ELISA in serum and organs of LPS-induced septic mice; format: in vivo, mouse
Experimental: For LPS‐induced sepsis model experiments, twenty male C57BL/6J mice were randomly divided into four groups (n = 5 in each group). Mice in group 1 were injected with 0.9% NaCl, while mice in groups 2–4 were injected intraperitoneally with LPS (20 mg kg^−1). After 30 min, mice in group 3 were injected with 40 mg kg^−1 CV122 and mice in group 4 were injected with 40 mg kg^−1 Suramin. After 3 h, blood was taken and the lungs, liver, spleen, kidney heart, and brain were taken. For CLP experiments, the mice were euthanized 24 h after the establishment of the sepsis model. Blood samples were collected from the eyeballs of mice, the lungs were taken. These organs were ground at 0.1 g mL^−1 in PBS, centrifuged and the supernatant collected. Serum and organ tissue supernatants were used to detect cytokine levels using the mouse TNF‐α, IL‐6, IL‐1β ELISA MAXTM Deluxe Set.

[2] = system: LPS-induced septic mice; experiment: Treadmill vitality test of LPS-induced septic mice; format: in vivo, mouse; conditions: LPS-treated mice
Description: To further assess the protective effect of CV122 in LPS‐induced septic mice, we assessed the vitality of the mice with or without CV122 treatment by treadmill (Figure 2I).

[3] = system: splenocytes and lymph node cells; experiment: Flow cytometry of splenocyte apoptosis and T/B cells in LPS-induced septic mice; format: in vivo, mouse; conditions: 24 h after LPS
Experimental: Each group of mice was euthanized 24 h after LPS injection, spleens were harvested, red blood cells were lysed to detect splenocyte apoptosis, and the ratio of CD3^+CD4^+ T cells, CD3^+CD8^+ T cells, CD3^−CD19^+ B cells in spleen cells and lymph nodes quantified. Antibodies were: FITC‐Annexin V and PI; APC‐CD3, FITC‐CD4, PE‐CD8a, and PE‐CD19. Each group of mice was euthanized 12 h after LPS injection, Lung, kidney, and spleens were harvested, red blood cells were lysed to detect the ratio of macrophages in multiple organs, Antibodies were: FITC anti‐mouse F4/80; APC anti‐mouse CD86. Flow cytometry was used to quantify the adhesion molecules ICAM‐1 and VCAM‐1 on the surface of RAW264.7 cells and HUVECs. CV122 (50 µM) was incubated with the cells for 3 h, LPS (5 µg mL^−1) and TNF‐α (20 ng mL^−1) were used to stimulate the cells for 1 h, and the cells were collected. FITC anti‐mouse CD54 antibody and AF647 anti‐mouse CD106 antibody were incubated for 30 min at room temperature in the dark, PBS was added at 1000 rpm, and the cells were centrifuged for 7 min. A 200‐mesh copper mesh was used to filter the cells into a flow cytometer, and a flow cytometer (BD Biosciences) was used for detection.

[4] = system: HPA; experiment: HPA expression in TNF-α-stimulated HUVECs (immunofluorescence, western blotting); format: cell-based, human; conditions: CV122 50 µM 3 h, then TNF-α 20 ng mL−1 1 h
Experimental: (§1) Lungs were harvested from LPS‐induced and CLP‐induced sepsis model mice, and frozen sections were prepared. HUVECs and RAW264.7 macrophages were incubated with CV122 for 3 h, and TNF‐α (20 ng mL^−1) and LPS (5 µg mL^−1) were used to stimulate cells for 1 h. Lung tissue, HUVECs, and RAW264.7 macrophages were fixed with 4% paraformaldehyde for 10 min before permeabilization with 0.5% Triton X‐100 for 10 min. The membrane was sealed with 4% skimmed milk powder and incubated at room temperature for 50 min. Primary antibodies were rabbit anti‐heparanase polyclonal antibodies overnight at 4 °C. The diluent of the secondary antibody FITC‐WGA‐lectin was kept at room temperature and protected from light for 1 h. Nuclei were stained with DAPI. After 120 s, images were acquired with a confocal microscope (LSM 800, Zeiss, Germany).
(§2) CV122 (50 µM) was incubated with HUVECs and RAW264.7 cells for 3 h, and LPS (5 µg mL^−1) and TNF‐α (20 ng mL^−1) were incubated for 1 h. Total protein was extracted with RIPA tissue/cell lysate solution. Lung tissues were collected and homogenized in cold RIPA buffer to obtain proteins. The BCA method was used to quantify protein. After full denaturing, proteins were separated by 10% SDS‐PAGE and transferred to PVDF membrane. […] Blots were developed with a chemiluminescent HRP substrate, and the protein bands were detected with a chemiluminescence imager (MiniChemi610).

[5] = system: HPA; experiment: HPA levels in LPS-stimulated RAW264.7 macrophages (immunofluorescence, western blotting); format: cell-based, mouse; conditions: CV122 50 µM 3 h, then LPS 5 µg mL−1 1 h
Experimental: as §1, §2

[6] = system: HUVECs; experiment: Cell surface glycocalyx of TNF-α-stimulated HUVECs (WGA-FITC, atomic force microscopy); format: cell-based, human
Experimental: as §1
HUVECs and RAW264.7 cells in the logarithmic growth phase were digested, centrifuged, and then plated in a six‐well plate at a density of 1 × 10[5] cells per well. CV122 was incubated for 3 h, and cells were stimulated with LPS (5 µg mL^−1) and TNF‐α (20 ng mL^−1) for 5 h. Cell‐covered slides were carefully removed and placed on the stage of the atomic force microscope with needle parameters: elastic coefficient 0.4 N M^−1, sensitivity 65.63 nm V^−1, with otherwise the usual atomic force microscope (Bruker, Billerica, MA) parameters used.

[7] = system: HPA; experiment: HPA expression in tissues of LPS-induced septic mice (IHC, immunofluorescence, immunoblotting); format: in vivo, mouse; conditions: 24 h after LPS injection
Experimental: as §1
The lung, kidney, and liver tissues of mice were fixed in paraformaldehyde. Sections underwent endogenous peroxidase quenching and antigen retrieval followed by incubation with primary antibodies or isotype‐matched controls. […]
CV122 (50 µM) was incubated with HUVECs and RAW264.7 cells for 3 h, and LPS (5 µg mL^−1) and TNF‐α (20 ng mL^−1) were incubated for 1 h. […] The BCA method was used to quantify protein. […] Blots were developed with a chemiluminescent HRP substrate, and the protein bands were detected with a chemiluminescence imager (MiniChemi610).

[8] = system: CLP-induced septic mice; conditions: mouse, in vivo
[9] = system: CCHFV; format: in vivo, mouse
[10] = system: RAW264.7 macrophages; experiment: Cell survival assay (CCK-8) in RAW264.7 macrophages; conditions: 50 to 200 µM

COC1OC(COS(=O)(=O)O)C(OC2OC(C(=O)O)C(OC3OC(COS(=O)(=O)O)C(OC4OC(C(=O)O)C(OC5OC(COS(=O)(=O)O)C(O)C(O)C5NS(=O)(=O)O)C(OS(=O)(=O)O)C4O)C(OS(=O)(=O)O)C3NS(=O)(=O)O)C(O)C2OS(=O)(=O)O)C(O)C1NS(=O)(=O)O (stereo not drawn) [CV122]
TNF-α, IL-6 and IL-1β levels in serum and lungs ([1]; 40 mg kg−1, 30 min after LPS 20 mg kg−1 i.p., 3 h after LPS, vs LPS group): significantly suppressed
TNF-α, IL-6 and IL-1β in tissue extracts of brains, hearts, livers, kidneys and spleens ([1]; 40 mg kg−1, 3 h after LPS): significantly inhibited the secretion of proinflammatory cytokines in these organs to a greater extent than Suramin
TNF-α levels in serum ([1]; candidate screening in LPS-induced septic mouse model (Figure 1C,D)): significantly decreasing
electric shocks needed in the first 100 m [2]: reduced the electric shocks needed in the first 100 m
running distance and time to exhaustion [2]: significantly increased the running distance and extended the time to exhaustion
total electric shocks until exhaustion [2]: obviously increased the total electric shocks until exhaustion
CD3+CD4+ T cells and CD3+CD8+ T cells in spleen [3]: recovered by CV122 to close to control levels
CD3−CD19+ B cells in spleen and inguinal lymph nodes [3]: recovered upon treatment with CV122
splenocyte apoptosis (FITC-Annexin V and PI) [3]: significantly reduced apoptosis
HPA expression in HUVECs [4]: significantly inhibited HPA expression in HUVECs
HPA levels in macrophages [5]: significantly inhibited HPA levels following LPS stimulation of macrophages
glycocalyx integrity by WGA-FITC fluorescence [6]: rescued glycocalyx integrity
glycocalyx structure / surface roughness by atomic force microscopy [6]: reduced glycocalyx damage and resulted in a smoother surface
HPA overexpression in the lungs [7]: significantly reduced the HPA overexpression
HPA levels in the lungs [8]: significantly reduced the HPA levels in the lungs
TNF-α, IL-6 and IL-1β in serum and lungs [8]: reduced the level
body weight course [8]: gradually normalized the septic mice
cell surface glycocalyx in lungs (WGA) [8]: protected cell surface glycocalyx
lung pathological damage (HE) [8]: significantly rescued
survival rate ([8]; sc): 80%
spleen pathological damage (H&E) ([9]; 7 d after infection): spleen congestion and edema were slightly reduced
body weight ([9]; CCHFV-infected IFNAR−/− mice): slightly higher body weights
survival rate ([9]; CV122 20 mg kg−1 s.c. at 2, 3, 4 and 5 days after infection, IFNAR−/− mice, 8 day or longer observation, control 20%): 80%
effect on survival of RAW264.7 macrophages [10]: no significant inhibitory effect
